What was measured:
[1] = molecular target: T1, c-KIT (Homo sapiens, UniProt P10721); assay: AlphaScreen kinase assay with recombinant enzyme, c-KIT; assay type: biochemical; details: 100ATP, 8pt, GMean
T1 construct: purchased Millipore 14-559K
In short: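 AlphaScreen, biotinylated poly(Glu4-Tyr) 30 nM final; PY20 anti-pTyr acceptor and streptavidin donor beads 10 μg/mL; IC50 final conc. 10 μM (FLT3-D835Y, FLT3-ITD) / 100 μM (c-KIT); detection incubations 20 + 60 min RT; 580 nm emission.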

[2] = molecular target: T2, BA/F3-FLT3-ITD + D835Y cells (Homo sapiens, UniProt P36888, D835Y, cells depend on it, form not given); assay: Cell proliferation assay (CellTiter-Glo), engineered BA/F3 cells; assay type: cell-based, murine; details: BaF3 FLT3 ITD/D835Y cells, 3d-Growth; read-out: BaF3_FLT3 ITD/D835Y 3d-Growth: IC50
T2 sequence (P36888 1-993 D835Y): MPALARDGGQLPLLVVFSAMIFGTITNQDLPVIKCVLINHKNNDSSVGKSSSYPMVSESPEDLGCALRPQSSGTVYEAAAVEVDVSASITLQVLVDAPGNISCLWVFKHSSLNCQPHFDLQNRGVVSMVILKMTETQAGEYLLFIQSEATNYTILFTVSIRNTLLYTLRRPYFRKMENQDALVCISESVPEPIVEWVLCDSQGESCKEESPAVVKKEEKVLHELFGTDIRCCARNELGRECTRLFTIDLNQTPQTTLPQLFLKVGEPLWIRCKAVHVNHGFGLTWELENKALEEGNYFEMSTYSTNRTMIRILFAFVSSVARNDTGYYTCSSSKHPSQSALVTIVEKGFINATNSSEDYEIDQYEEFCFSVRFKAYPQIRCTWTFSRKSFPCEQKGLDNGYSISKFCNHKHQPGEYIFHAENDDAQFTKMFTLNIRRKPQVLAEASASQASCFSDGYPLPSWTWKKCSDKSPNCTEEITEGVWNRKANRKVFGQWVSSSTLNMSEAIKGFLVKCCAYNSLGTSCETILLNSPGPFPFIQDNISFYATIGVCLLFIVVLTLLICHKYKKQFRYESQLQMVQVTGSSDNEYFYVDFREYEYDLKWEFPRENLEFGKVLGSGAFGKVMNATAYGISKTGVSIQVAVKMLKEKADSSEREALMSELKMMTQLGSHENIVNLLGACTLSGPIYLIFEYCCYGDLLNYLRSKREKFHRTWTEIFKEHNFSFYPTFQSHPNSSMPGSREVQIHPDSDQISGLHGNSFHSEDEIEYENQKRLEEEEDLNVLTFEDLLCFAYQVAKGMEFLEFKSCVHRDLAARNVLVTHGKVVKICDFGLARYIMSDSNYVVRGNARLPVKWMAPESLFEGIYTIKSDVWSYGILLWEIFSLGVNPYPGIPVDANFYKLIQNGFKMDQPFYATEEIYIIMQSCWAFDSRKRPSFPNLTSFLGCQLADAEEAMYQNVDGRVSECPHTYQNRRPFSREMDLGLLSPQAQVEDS
In short: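 Three-day growth at 37 °C, 5% CO2 under compound (1 μM top final, 1:3 dilutions, eight points, 0.2% DMSO), read as ATP luminescence by CellTiter-Glo for IC50. Cells: MOLM-14 with FLT3 ITD plus D835Y or F691L, and IL-3-deprived Ba/F3 transfected with FLT3 ITD/D835Y, 1×10^4 per well.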

T1 sequence (P10721 26-976): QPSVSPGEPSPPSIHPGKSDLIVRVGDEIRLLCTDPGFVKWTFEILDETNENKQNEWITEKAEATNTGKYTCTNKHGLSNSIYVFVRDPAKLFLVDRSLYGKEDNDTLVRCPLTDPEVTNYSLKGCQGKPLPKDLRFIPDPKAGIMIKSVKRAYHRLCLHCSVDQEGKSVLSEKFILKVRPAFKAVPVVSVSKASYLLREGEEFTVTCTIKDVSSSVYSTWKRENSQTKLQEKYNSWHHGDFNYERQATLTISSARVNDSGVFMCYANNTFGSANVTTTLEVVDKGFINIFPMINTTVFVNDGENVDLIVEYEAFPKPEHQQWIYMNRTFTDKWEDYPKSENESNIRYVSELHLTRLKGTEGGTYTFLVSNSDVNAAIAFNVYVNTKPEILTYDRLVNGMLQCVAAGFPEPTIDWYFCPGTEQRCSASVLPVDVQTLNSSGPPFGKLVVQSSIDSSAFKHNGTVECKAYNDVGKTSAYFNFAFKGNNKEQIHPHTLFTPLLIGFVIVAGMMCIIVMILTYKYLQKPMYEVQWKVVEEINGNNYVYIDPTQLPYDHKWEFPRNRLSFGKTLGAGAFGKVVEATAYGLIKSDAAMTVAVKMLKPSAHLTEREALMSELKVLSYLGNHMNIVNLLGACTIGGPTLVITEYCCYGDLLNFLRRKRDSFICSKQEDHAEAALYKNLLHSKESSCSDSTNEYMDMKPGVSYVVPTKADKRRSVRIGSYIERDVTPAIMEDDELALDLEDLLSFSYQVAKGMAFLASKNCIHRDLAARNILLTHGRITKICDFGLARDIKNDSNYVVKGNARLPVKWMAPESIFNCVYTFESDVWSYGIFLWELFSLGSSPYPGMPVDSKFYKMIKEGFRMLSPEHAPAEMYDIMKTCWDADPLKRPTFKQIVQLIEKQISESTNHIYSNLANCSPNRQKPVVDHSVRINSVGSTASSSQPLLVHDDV

| SMILES | IC50 [1] [µM] | GI50 [2] [µM] |
| --- | --- | --- |
| c1ccc(-c2cc3cc(-c4ccc5[nH]nc(NC6CCNC6)c5c4)cnc3[nH]2)cc1 (stereo not drawn) [Compound P-0059, 5-(2-phenyl-1H-pyrrolo[2,3-b]pyridin-5-yl)-N-pyrrolidin-3-yl-1H-indazol-3-amine] | 0.0001 to 10 | 0.0001 to 10 |
| NC1CCCN(C(=O)c2cccc(-c3cnc4[nH]c(-c5ccccc5)cc4c3)n2)C1 (stereo not drawn) [Compound P-0067, (3-amino-1-piperidyl)-[6-(2-phenyl-1H-pyrrolo[2,3-b]pyridin-5-yl)-2-pyridyl]methanone] | 0.0001 to 10 | 0.0001 to 10 |
| NC1CCN(C(=O)c2n[nH]c3ccc(-c4cnc5[nH]c(C6=CCN(C(=O)C7CC7)C6)cc5c4)cc23)CC1 [Compound P-0074, (4-amino-1-piperidyl)-[5-[2-[1-(cyclopropanecarbonyl)-2,5-dihydropyrrol-3-yl]-1H-pyrrolo[2,3-b]pyridin-5-yl]-1H-indazol-3-yl]methanone] | 10 to 50 | 0.0001 to 10 |
| CNC1CCN(Cc2cccc(-c3cnc4[nH]c(-c5ccccc5)cc4c3)n2)C1 (stereo not drawn) [Compound P-0087, N-methyl-1-[[6-(2-phenyl-1H-pyrrolo[2,3-b]pyridin-5-yl)-2-pyridyl]methyl]pyrrolidin-3-amine] | 0.0001 to 10 | 0.0001 to 10 |
| COC(=O)C1(C)CCN(C(=O)c2cccc(-c3cnc4[nH]c(-c5ccccc5)cc4c3)n2)CC1 [Compound P-0092, methyl 4-methyl-1-[6-(2-phenyl-1H-pyrrolo[2,3-b]pyridin-5-yl)pyridine-2-carbonyl]piperidine-4-carboxylate] | 50 to 100 | 0.0001 to 10 |

Results, then the molecule that gave them:

| IC50 [1] [µM] | GI50 [2] [µM] | SMILES |
| --- | --- | --- |
| 0.0001 to 10 | 0.0001 to 10 | N=C(N)N1CCN(C(=O)c2cccc(-c3cnc4[nH]c(-c5ccccc5)cc4c3)n2)CC1 [Compound P-0057, 4-[6-(2-phenyl-1H-pyrrolo[2,3-b]pyridin-5-yl)pyridine-2-carbonyl]piperazine-1-carboxamidine] |
| 0.0001 to 10 | 0.0001 to 10 | O=C(c1cccc(-c2cnc3[nH]c(-c4ccccc4)cc3c2)n1)N1CCC(O)C1 (stereo not drawn) [Compound P-0068, (3-hydroxypyrrolidin-1-yl)-[6-(2-phenyl-1H-pyrrolo[2,3-b]pyridin-5-yl)-2-pyridyl]methanone] |
| 10 to 50 | 0.0001 to 10 | O=C(c1cccc(-c2cnc3[nH]c(-c4ccccc4)cc3c2)n1)N1CCCC(O)C1 (stereo not drawn) [Compound P-0069, (3-hydroxy-1-piperidyl)-[6-(2-phenyl-1H-pyrrolo[2,3-b]pyridin-5-yl)-2-pyridyl]methanone] |
| 50 to 100 | 0.0001 to 10 | O=C(c1cccc(-c2cnc3[nH]c(-c4ccccc4)cc3c2)n1)N1CCC(F)(F)CC1 [Compound P-0089, (4,4-difluoro-1-piperidyl)-[6-(2-phenyl-1H-pyrrolo[2,3-b]pyridin-5-yl)-2-pyridyl]methanone] |

— US9938273B2 (Plexxikon Inc., priority 2015, dated 2018)
